# Experimental data published in patent US12655104B2, “Anticancer compounds selective for ER-positive cancers” (THE BOARD OF TRUSTEES OF THE UNIVERSITY OF ILLINOIS, priority 2020, dated 2026).
# Like-named read-outs stand apart in the source and are kept apart here.
# How the values were obtained:
# [1] = tested on: MCF-7 cells; assay: Alamar blue fluorescence viability (IC50), MCF-7; type: cell-based; details: Homo sapiens
# Description: (§1) Cancer Cell Lines: Culturing Conditions and Validation. All cell lines were cultured at 37° C. with 5% CO2. All ERα-positive cell lines were grown in media lacking phenol red. MCF-7 were grown in EMEM with 10% FBS and 1% penicillin-streptomycin (P/S). T47D were cultured in MEM with 10% FBS and 1% P/S. TYS and TDG cells were grown in MEM supplemented with 10% CD-FBS and 1% P/S. HCT-116 and MDA-MB-231 cells were cultured in RPMI-1640 supplemented with 10% FBS and 1% P/S. MDA-MB-436 cells were cultured in DMEM supplemented with 10% FBS and 1% P/S. HT-29 were cultured in McCoy's media supplemented with 10% FBS and 1% P/S. All cell lines were used directly from ATCC stocks and/or have been further authenticated using PowerPlex16HS Assay (Promega) as described previously.^54 In short, >1 million cells were harvested and lysed using the cell lysis buffer (50 mM Tris, 50 mM EDTA, 25 mM sucrose, 100 mM NaCl, 1% SDS, pH 8). DNA extraction and short tandem repeats (STRs) profiling for each cell line were carried out at the University of Arizona Genetics Core (UAGC). Autosomal STR profiles were compared to reference databases such as ATCC, DSMZ, and JCRB.
# (§2) Alamar Blue Fluorescence for Anticancer Activity (IC50). 2,000-15,000 cells per well were seeded a 96-well plate. Cells were allowed to adhere before DMSO stock solutions of test compounds were added to each well with a final concentration of DMSO in each well=1%; final volume: 100 μL. At the end of the desired incubation time (e.g., 24 or 72 hours), media in each well was aspirated and new fresh media (no compound, 100 μL) was added. Alamar blue solution (4 mg resazurin per 40 mL PBS) was then added (10 μL). After 2-6 hours incubation, each well's fluorescence (λexcit.=555 nm, λemission.=585 nm) was measured using a SpectraMax M3 plate reader (Molecular Devices). Percent dead was determined by comparison to a 100% dead control: 100 μM raptinal treated cells. Dose dependent curves and IC50 were calculated using Origin Pro V10.
# [2] = tested on: T47D; assay: Alamar blue fluorescence viability (IC50), T47D; type: cell-based; details: Homo sapiens, 24 h, read-out: IC50 24 hr (μM)
# Description: as §1, with “DNA extraction and short tandem repeats (STRs) profiling for each cell line were carried out at the University of Arizona Genetics Core (UAGC). Autosomal STR profiles were compared to reference databases such as ATCC, DSMZ, and JCRB.” left out
# (§3) Alamar Blue Fluorescence for Anticancer Activity (IC50). […] After 2-6 hours incubation, each well's fluorescence (λexcit.=555 nm, λemission.=585 nm) was measured using a SpectraMax M3 plate reader (Molecular Devices). Percent dead was determined by comparison to a 100% dead control: 100 μM raptinal treated cells. Dose dependent curves and IC50 were calculated using Origin Pro V10.
# [3] = tested on: T47D-ERaY537S (TYS); assay: Alamar blue fluorescence viability (IC50), TYS; type: cell-based; details: 24 h, read-out: IC50 24 hr (μM)
# Description: as §1, with “DNA extraction and short tandem repeats (STRs) profiling for each cell line were carried out at the University of Arizona Genetics Core (UAGC). Autosomal STR profiles were compared to reference databases such as ATCC, DSMZ, and JCRB.” left out
# as §3
# [4] = tested on: MDA-MB-436; assay: Alamar blue fluorescence viability (IC50), MDA-MB-436; type: cell-based; details: for IC50: Homo sapiens
# Description: as §1, §2
# [5] = tested on: HCT-116; assay: Alamar blue fluorescence viability (IC50), HCT-116; type: cell-based; details: for IC50: Homo sapiens
# Description: as §1, §2
# [6] = tested on: HT-29; assay: Alamar blue fluorescence viability (IC50), HT-29; type: cell-based; details: for IC50: Homo sapiens
# Description: as §1, §2
# [7] = Simulated gastric fluid (SGF) stability assay; type: in vitro ADME; details: 100 μM in SGF with pepsin, 120 min
# Description: Simulated Gastric Fluid (SGF) Stability Assay. SGF was prepared fresh by adding 3.2 g pepsin (Sigma Aldrich P7000) to 1000 mL of SGF (Fischer Scientific 7108-16) and the pH adjusted to 1.2 using a pH meter. This SGFwith pepsin solution was then warmed to 37° C. 990 μL of warmed SGFwith pepsin was then aliquoted into multiple Eppendorf tubes, followed by 10 μL of 10 mM DMSO stock solutions of test compounds. Erythromycin (MedChemExpress HY-B0220) is a positive control for this stability assay. Samples were incubated at 37° C. for the entire experiment with vortexing every 15 minutes. At each desired time point (0, 15, 30, 60, 120 minutes), a 100 μL aliquot is removed and quenched into 50 μL of acetonitrile. Samples are stored at 4° C. until all time points are complete. Samples were then vortexed and then clarified at 3,000 RPM for 10 minutes in a 4° C. centrifuge. Supernatants were collected and compound concentrations determined by LC-MS/MS (UIUC Metabolomics Center, Urbana, IL.). Determined compound concentrations were used to calculate percent remaining compared to t=0 samples.
# [8] = Pharmacokinetic (PK) studies in mice; type: in vivo
# Description: Pharmacokinetic (PK) Studies. […] Mice were then sacrificed in cohorts of 3 at time points (#, #, #). Blood was collected, centrifuged, and plasma separated for quantification of test compound utilizing LC-MS/MS (UIUC Metabolomics Center, Urbana, IL.). Determined compound concentration was then analyzed using non-linear regression programing (WinNonlin) and pharmacokinetic parameters estimated.
# [9] = female, CD-1, mouse, in vivo, iv, I.V. 20 mg/kg
smiles,measurement,setting,value
"O=C1Nc2c(C(F)(F)F)cccc2[C@@]1(c1ccc(O)cc1)N1CCC(F)(F)CC1 (single isomer, unassigned) [ErSO-DFP]",IC50,"[1]; MCF7, 24 h, read-out: IC50 24 hr (μM)",0.017 ± 0.002 µM
same,IC50,"[1]; MCF7, 72 h, read-out: IC50 72 hr (μM)",0.017 ± 0.001 µM
same,IC50,"[1]; MCF7, read-out: pIC50 (converted)",0.017 µM
same,IC50,[2],0.016 ± 0.002 µM
same,IC50,[3],0.007 ± 0.001 µM
same,Fold Change,[4]; Average Fold Change between 24/72 hr IC50 values for MCF-7 and MDA-MB-436,3235
same,IC50,"[4]; MDA-MB-436, 24 h, read-out: IC50 24 hr (μM)",64 ± 3 µM
same,IC50,"[4]; MDA-MB-436, 72 h, read-out: IC50 72 hr (μM)",55 ± 9 µM
same,Fold Change,[5]; Average Fold Change between 24/72 hr IC50 values for MCF-7 and HCT-116,3235
same,effects bottom out at (% cell death at lower concentrations),"[5]; HCT-116 cells, bottom of IC50 curve",~0%
same,IC50,"[5]; HCT-116, 24 h, read-out: IC50 24 hr (μM)",55 µM
same,IC50,"[5]; HCT-116, 72 h, read-out: IC50 72 hr (μM)",55 µM
same,Fold Change,[6]; Average Fold Change between 24/72 hr IC50 values for MCF-7 and HT-29,1588
same,IC50,"[6]; HT-29, 24 h, read-out: IC50 24 hr (μM)",33 ± 4 µM
same,IC50,"[6]; HT-29, 72 h, read-out: IC50 72 hr (μM)",27 ± 4 µM
same,% Remaining after 120 min (SD),[7],13±1%
same,AUC ratio ErSO-DFP:ErSO,[8]; I.V. 20 mg/kg,0.6
same,CL ratio ErSO-DFP:ErSO,[8]; I.V. 20 mg/kg,1.6
same,Cmax ratio ErSO-DFP:ErSO,[8]; I.V. 20 mg/kg,1.9
same,MRT ratio ErSO-DFP:ErSO,[8]; I.V. 20 mg/kg,0.2
same,Vss ratio ErSO-DFP:ErSO,[8]; I.V. 20 mg/kg,0.3
same,AUC as % of the ErSO value,"[8]; I.V., head-to-head",~60%
same,AUC,[8]; [9],6370 ng·h/mL
same,Cmax,[8]; [9],14700 ng/mL
same,MRT,[8]; [9],52.8 min
same,clearance,[8]; [9],52 mL/min/kg
same,Vd,"[8]; female, CD-1, mouse, in vivo, iv, I.V. 20 mg/kg, read-out: Vss",2.75 L/kg
same,bioavailability,"[8]; female, CD-1, mouse, in vivo, po, read-out: oral availability F %",6%
